The text below walks through data of patent US10156566B2, “Detoxification of microbial virulence factors in oral cavity” (priority 2015, dated 2018).

Assay [1] deals with E. coli LPS. Kind of assay: Displacement of LPS from binding to BODIPY TR cadaverine (Tables 3, 9, 12, 13). The note with it: E. coli LPS 15 μg/ml.
The subject of the next assay is P. gingivalis LPS 1690. Format: biochemical.
For assay [2], the system named is E. coli LPS. Format: biochemical.
Method: (§1) The Limulus Amebocyte Lysate Assay (LAL) is an assay to determine the total amount of lipopolysaccharide (LPS) in the sample tested (Pierce LAL Chromogenic Endotoxin Quantitation Kit, ThermoFischer Scientific, Waltham, Mass.). The assay was performed following manufacturer's instruction. Ninety-six-well microplates were first equilibrated in a heating block for 10 min at 37° C. Fifty μl each of standard or sample was dispensed into the microplate wells and incubated with the plate covered for 5 min at 37° C. Then 50 μl LAL was added to each well.
(§2) Plates were shaken gently and incubated for 10 min at 37° C. 100 μl of chromogenic substrate was added and incubated for 6 min at 37° C.
(§3) The Thermo Scientific Pierce LAL Chromogenic Endotoxin Quantitation Kit is a quantitative endpoint assay for the detection of LPS, which catalyzes the activation of a proenzyme in the modified Limulus Amebocyte Lysate (LAL). The activated proenzyme then splits p-Nitroaniline (pNA) from the colorless substrate, Ac-Ile-Glu-Ala-Arg-pNA. […] Then 50 μl LAL was added to each well. Plates were shaken gently and incubated for 10 min at 37° C. 100 μl of chromogenic substrate was added and incubated for 6 min at 37° C.
The next assay addresses TLR4 (Homo sapiens, UniProt O00206+Q9Y6Y9). Put plainly: cell-based. Further details: host or cells: HEK-Blue-hTLR4 (HEK 293T). It counts as cell-based.

Several values for one entry are separate records, joined by “and”; a condition that tells them apart may be missing. Identical values can stand only once. Counter-ions that a name gives are not always drawn. Like-named read-outs stand apart in the source and are kept apart here.

What is called inhibition is the share of the control response that was lost under treatment. Higher therefore signals a response far below the control.

Sequence of TLR4 (O00206 24-839): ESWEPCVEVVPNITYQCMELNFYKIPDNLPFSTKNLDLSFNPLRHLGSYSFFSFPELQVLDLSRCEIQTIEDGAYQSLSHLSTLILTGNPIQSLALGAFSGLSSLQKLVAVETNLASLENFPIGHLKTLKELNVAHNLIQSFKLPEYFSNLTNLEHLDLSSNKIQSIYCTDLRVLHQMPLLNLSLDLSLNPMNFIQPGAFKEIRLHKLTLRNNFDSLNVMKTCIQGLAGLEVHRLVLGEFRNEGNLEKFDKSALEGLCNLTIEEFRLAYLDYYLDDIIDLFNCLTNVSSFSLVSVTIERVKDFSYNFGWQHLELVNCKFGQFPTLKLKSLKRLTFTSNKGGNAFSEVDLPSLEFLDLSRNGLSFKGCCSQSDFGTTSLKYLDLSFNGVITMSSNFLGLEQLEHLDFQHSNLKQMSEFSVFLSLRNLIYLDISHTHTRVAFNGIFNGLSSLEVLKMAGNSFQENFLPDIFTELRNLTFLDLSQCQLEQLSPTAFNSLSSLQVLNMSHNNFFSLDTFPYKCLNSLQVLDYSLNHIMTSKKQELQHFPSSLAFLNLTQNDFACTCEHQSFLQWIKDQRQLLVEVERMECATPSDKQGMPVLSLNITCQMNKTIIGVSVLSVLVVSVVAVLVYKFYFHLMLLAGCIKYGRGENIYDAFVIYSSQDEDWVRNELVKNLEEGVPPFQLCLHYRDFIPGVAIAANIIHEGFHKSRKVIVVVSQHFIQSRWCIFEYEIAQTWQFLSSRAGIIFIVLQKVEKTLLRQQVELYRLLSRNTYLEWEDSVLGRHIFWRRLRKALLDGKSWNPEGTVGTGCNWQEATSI
Sequence of TLR4 (Q9Y6Y9 17-160): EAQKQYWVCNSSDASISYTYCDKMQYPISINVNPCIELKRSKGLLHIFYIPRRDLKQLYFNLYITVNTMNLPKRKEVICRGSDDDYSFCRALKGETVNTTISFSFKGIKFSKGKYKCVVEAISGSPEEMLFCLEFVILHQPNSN
Method for P. gingivalis LPS 1690: as §1, §2, §3
Method for TLR4: Stannous fluoride, Cetylpyridium chloride (CPC) and Triclosan were purchased from Sigma-Aldrich, St. Louis, Mo. […] The growth medium: DMEM, with 4.5 g/l glucose, supplemented 10% fetal bovine serum, 50 U/ml penicillin and streptomycin, 100 μg/ml Normocin, and 2 mM L-glutamine, purchased from Thermo Fisher, Waltham, Mass.

Turning to “1,3-Diphenylacetone (1,3 diphenyl-2-propanone)”, in the assay with E. coli LPS [1], the “LPS displacement % Mean” value is listed as 11%, the “LPS displacement % Reading 1” value was found to be 16% and the “LPS displacement % Reading 3” value worked out at 5%.

`[O-]n1ccccc1=S.[O-]n1ccccc1=S.[Zn+2]` [1-Hydroxypyridine-2-thone zinc salt]: the “Inhibition of LAL activity %” value is 0% with P. gingivalis LPS 1690; 2% and 6% in the assay on E. coli LPS [2].

In the assay on Lipopolysaccharide, iron(iii) chloride hexahydrate came in with an inhibition of 58.1%. Moreover, in the assay with E. coli LPS [1], the “LPS displacement % Mean” value is on record as about 100%, the “LPS displacement % Reading 1” value was about 100%, the “LPS displacement % Reading 2” value turned out to be 100% and the “LPS displacement % Reading 3” value is about 100%.

`CCCCCCCCCCCCCCCCCC(=O)NCCN(CC)CC` [Diethylaminoethyl stearamide] gave an inhibition in the assay on Lipopolysaccharide of 97.4%. Further, in the assay with E. coli LPS [1], the “LPS displacement % Mean” value was 66%, the “LPS displacement % Reading 1” value is 77%, the “LPS displacement % Reading 2” value was 62% and the “LPS displacement % Reading 3” value is reported as 58%.

As to `CCCCCCCCCCCC(=O)NCCCN(C)C` [3-Dodecanamidopropyldimethylamine], in the assay on E. coli LPS [1], the “LPS displacement % Mean” value is 79%, the “LPS displacement % Reading 1” value was determined as 87%, the “LPS displacement % Reading 2” value is given as 62% and the “LPS displacement % Reading 3” value stood at 87%.

As for `O=C([O-])C(=O)[O-].[K+].[K+]` [potassium oxalate], the “Inhibition of LAL activity %” value was 8% and 0% with P. gingivalis LPS 1690; 1% and 6% with E. coli LPS [2].

Compound `CCCCCCCCCCCCCCCCCC(=O)NCCCN(C)C` [Stearylamidopropyldimethylamine] came in with an inhibition in the assay with Lipopolysaccharide of 83.8%. Also, in the assay on E. coli LPS [1], the “LPS displacement % Mean” value stood at 77%, the “LPS displacement % Reading 1” value is given as 85%, the “LPS displacement % Reading 2” value was 71% and the “LPS displacement % Reading 3” value came out at 74%.

In the assay on Lipopolysaccharide, `CCCCCCCCCCCCCCCCCC(=O)OCCNC(=O)C[n+]1ccccc1.[Cl-]` [Steapyrium chloride] showed an inhibition of 100%. Besides, in the assay on E. coli LPS [1], the “LPS displacement % Mean” value was about 100%, the “LPS displacement % Reading 1” value is recorded as about 100%, the “LPS displacement % Reading 2” value was found to be 100% and the “LPS displacement % Reading 3” value is about 100%.

Take `CC(C=O)Cc1ccc(C(C)C)cc1` (stereo not shown) [3-(4-Isopropylphenyl)-2-methylpropionaldehyde]: in the assay on E. coli LPS [1], the “LPS displacement % Mean” value was 39%, the “LPS displacement % Reading 1” value is listed as 21%, the “LPS displacement % Reading 2” value is listed as 29% and the “LPS displacement % Reading 3” value is on record as 65%.

On to `CCCCCCCCCCCCN(C)C` [N,N-Dimethyldodecylamine], for which, in the assay with E. coli LPS [1], the “LPS displacement % Mean” value was 22%, the “LPS displacement % Reading 1” value turned out to be 36%, the “LPS displacement % Reading 2” value is given as 18% and the “LPS displacement % Reading 3” value stood at 13%.

In the assay with Lipopolysaccharide, `CCCCC/C=C\C/C=C\CCCCCCCC(=O)OC` [Methyl linoleate] displayed an inhibition of 36.9%. Also, in the assay with E. coli LPS [1], the “LPS displacement % Mean” value is 88%, the “LPS displacement % Reading 1” value is on record as about 100%, the “LPS displacement % Reading 2” value is 53% and the “LPS displacement % Reading 3” value was about 100%.

Turning to `CCCCCCCCCCCCCC(=O)NCC(=O)O` [N-Myristoylglycine], the inhibition in the assay with Lipopolysaccharide amounted to 91.4%. In the assay with E. coli LPS [1], the “LPS displacement % Mean” value is on record as 76%, the “LPS displacement % Reading 1” value is recorded as about 100%, the “LPS displacement % Reading 2” value was found to be 39% and the “LPS displacement % Reading 3” value worked out at 74%.

As for `[Cu+].[I-]` [Copper(I) iodide], in the assay on E. coli LPS [1], the “LPS displacement % Mean” value came to 18%, the “LPS displacement % Reading 1” value came to 23%, the “LPS displacement % Reading 2” value came out at 12% and the “LPS displacement % Reading 3” value is listed as 20%.

On to `Oc1cc(Cl)ccc1Oc1ccc(Cl)cc1Cl` [Triclosan (irgasan)], for which the “Inhibition of LAL activity %” value is 0% in the assay with P. gingivalis LPS 1690; 10% and 0% with E. coli LPS [2]. The “Average fluorescence intensity (FI)” value on TLR4 (500 μM, Control 1027) is on record as 1021. Further, at TLR4 (HEK-Blue hTLR4, read-out: % of control), the remaining activity at 500 µM is 99.4%.

`CCCCCCCCCCCCCC[n+]1ccc(C)cc1.[Cl-]` [Myristyl-γ-picolinium chloride]: in the assay on Lipopolysaccharide, the inhibition was 96.2% and 96%. In the assay with E. coli LPS [1], the “LPS displacement % Mean” value is on record as about 100%, the “LPS displacement % Reading 1” value was about 100%, the “LPS displacement % Reading 2” value is reported as about 100% and the “LPS displacement % Reading 3” value is recorded as about 100%.

`CC(C)CCOC(=O)c1ccccc1` [Isopentyl benzoate]: in the assay with E. coli LPS [1], the “LPS displacement % Mean” value turned out to be 18%, the “LPS displacement % Reading 1” value was 22% and the “LPS displacement % Reading 3” value was found to be 13%.

Consider `CC(O)C(=O)[O-].CC(O)C(=O)[O-].[Zn+2]` (racemic) [dl-lactic acid hemizinc salt], for which, in the assay with E. coli LPS [1], the “LPS displacement % Mean” value was determined as 19%, the “LPS displacement % Reading 1” value turned out to be 15% and the “LPS displacement % Reading 3” value is 24%.

For the compound `CCCCCCCCCCCC[n+]1ccccc1.[Cl-]` [N-Laurylpyridinium chloride], in the assay with Lipopolysaccharide, the inhibition was 96.5%. For the same compound, in the assay with E. coli LPS [1], the “LPS displacement % Mean” value is on record as 60%, the “LPS displacement % Reading 1” value worked out at 66%, the “LPS displacement % Reading 2” value came out at 56% and the “LPS displacement % Reading 3” value worked out at 59%.

In the case of `CCCCC/C=C\C/C=C\C/C=C\C/C=C\CCCC(=O)OCC` [ethyl arachidonate], the inhibition in the assay on Lipopolysaccharide was 28.7%.

For the compound `[F-].[Na+]` [sodium fluoride], the “Inhibition of LAL activity %” value in the assay with P. gingivalis LPS 1690 is 0%; in the assay with E. coli LPS [2], 4% and 5%.

Compound `CC/C=C\C/C=C\C/C=C\C/C=C\C/C=C\CCCC(=O)O[C@H](COCCCCCCCCCCCCCCCC)COP(=O)([O-])OCC[N+](C)(C)C` [Eicosapentaenoyl PAF C-16] returned an inhibition with Lipopolysaccharide of 82.7%.

In turn, `CCCCCCCCCCCCCCCCOC[C@H](COP(=O)([O-])OCC[N+](C)(C)C)OC(=O)NC` [Methylcarbamyl PAF C-16] yielded an inhibition in the assay on Lipopolysaccharide of 59.7%.

The compound `CCCCCCCCCCCCCCCCOS(=O)(=O)O` [Sodium hexadecyl sulfate] yielded an inhibition in the assay with Lipopolysaccharide of 89.4%.

`CCCCC/C=C\C/C=C\C/C=C\C/C=C\CCCC(=O)O[C@H](COC(=O)CCCCCCCCCCCCCCCCC)COP(=O)([O-])OCC[N+](C)(C)C` [1-Stearoyl-2-Arachidonoyl PC] yielded an inhibition with Lipopolysaccharide of 55%.

In the case of `[Cl][Sn][Cl]` [stannous chloride], in the assay on E. coli LPS [2], the “Inhibition of LAL activity %” value was 89% and 65%.

The compound `CCCCCCCCCCCCCCCC[N+](C)(C)C` [Cetyltrimethylammonium bromide] registered an inhibition with Lipopolysaccharide of 99.5%.

In turn, `CC/C=C\C/C=C\C/C=C\CCCCCCCC(=O)O` [α-linoleic acid] gave an inhibition in the assay with Lipopolysaccharide of 97.9%.

In the case of `O=C1O/C(=C/Br)CC[C@@H]1c1cccc2ccccc12` [(R)-Bromoenol lactone], the inhibition in the assay with Lipopolysaccharide was found to be 97.3%.

Regarding `CCCCCCCCCCCCCCCCOCC(CO)OC` (stereo not shown) [Hexadecyl Methyl Glycerol], the inhibition with Lipopolysaccharide came to 40%.

In the case of `CCCCC/C=C\C/C=C\CCCCCCCC(=O)O` [potassium linoleate], the inhibition with Lipopolysaccharide came to 98.9%.

`CCCCCCCC/C=C\CCCCCCCC(=O)NCCO` [Oleoylethanolamide]: in the assay on Lipopolysaccharide, the inhibition amounted to 34.1%.

Regarding `CCCCCCCCCCCCCCCC(=O)NCCO` [palmitamide mea], the inhibition in the assay on Lipopolysaccharide was 13.2%.

In turn, `CCCCC/C=C\C/C=C\CCCCCCCC(N)=O` [linoleamide] showed an inhibition with Lipopolysaccharide of 75.2%.

In the case of `C=CCCCCCCCCC=O` [Undecylenic aldehyde], in the assay on E. coli LPS [1], the “LPS displacement % Mean” value was 22%, the “LPS displacement % Reading 1” value is listed as 29% and the “LPS displacement % Reading 3” value is reported as 15%.

In the assay with Lipopolysaccharide, `CCCCCCCCCCCC(=O)NCCCN(C)C` [Dimethylaminopropyllaurylamide] displayed an inhibition of 99.4%.

For the compound `CCCCCCCC/C=C\CCCCCCCC(=O)O` [cis-Oleic acid], in the assay with Lipopolysaccharide, the inhibition stood at 61%. In addition, in the assay with E. coli LPS [1], the “LPS displacement % Mean” value worked out at 31%, the “LPS displacement % Reading 1” value amounted to 54% and the “LPS displacement % Reading 3” value is 9%.

With `CC(C)=CCC/C(C)=C/CC/C(C)=C/CC[C@]1(C)CCc2cc(O)c(C)c(C)c2O1` [γ-Tocotrienol], the inhibition in the assay on Lipopolysaccharide worked out at 38.5%.

Regarding `CCCCCCCCCCCCCCCC(=O)OC[C@H](COP(=O)([O-])OCC[N+](C)(C)C)OC(=O)CCCCCCCC(=O)O` [PAz-PC], the inhibition in the assay with Lipopolysaccharide came to 72.8%.

For the compound `CCCCCCCCCCCCN(CCO)CCO` [N-Lauryldiethanolamine], the inhibition in the assay on Lipopolysaccharide is 99.6% and 100%.

Consider `CCCCC/C=C\C/C=C\C/C=C\C/C=C\CCCC(=O)OCC(O)CO` (stereo not shown) [1-Arachidonoyl Glycerol], for which the inhibition in the assay on Lipopolysaccharide came to 41.8%.

For `O.O.O=C([O-])CC(O)(CC(=O)[O-])C(=O)[O-].O=C([O-])CC(O)(CC(=O)[O-])C(=O)[O-].[Zn+2].[Zn+2].[Zn+2]` [zinc citrate, dihydrate], the “Inhibition of LAL activity %” value in the assay on P. gingivalis LPS 1690 (citrate, dihydrate) was 104% and 57%; in the assay with E. coli LPS [2] (citrate, dihydrate), 104% and 82%.

With `C=CC[N+](C)(C)CC=C.[Cl-]` [Diallyldimethylammonium chloride], in the assay with E. coli LPS [1], the “LPS displacement % Mean” value is given as 35%, the “LPS displacement % Reading 1” value worked out at 40%, the “LPS displacement % Reading 2” value was found to be 38% and the “LPS displacement % Reading 3” value came to 28%.

Consider `CCCCCC(C=O)=Cc1ccccc1` [alpha-Amylcinnamaldehyde], for which, in the assay on E. coli LPS [1], the “LPS displacement % Mean” value came out at 15%, the “LPS displacement % Reading 1” value was 17% and the “LPS displacement % Reading 3” value is recorded as 13%.

`CCCCCCCCc1ccc(CCC(N)(CO)CO)cc1` [FTY720, reference compound] displayed an inhibition with Lipopolysaccharide of 79.1%.

`CCCCCCCCCCCCC/C=C/[C@@H](O)[C@H](CO)NCCCCCCCC` [C-8 Ceramine] had an inhibition in the assay with Lipopolysaccharide of 96.7%.
